Assay results taken from patent US9340532B2, “Methods and compositions for inhibiting CNKSR1” (PHUSIS THERAPEUTICS, INC., priority 2012, dated 2016).
Where “and” joins values, the source holds several entries; their conditions need not be identical. Equal entries are not always repeated.

How the values were obtained:
PH-domain of CNKSR1 = target: T1, PH-domain of CNKSR1 (Homo sapiens, UniProt Q969H4); test: SPR binding (Biacore 2000) to CNKSR1 PH-domain, initial hits; details: Table 5
T1 sequence (Q969H4 403-502 limits assumed): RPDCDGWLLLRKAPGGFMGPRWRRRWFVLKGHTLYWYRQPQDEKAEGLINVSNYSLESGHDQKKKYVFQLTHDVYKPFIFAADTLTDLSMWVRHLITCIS
Procedure: In embodiments, a homology model for the PH-domain of CNSKR1 based on known PH-domain crystal structures can be developed. The docking program PHuDock® can be used to identify potential inhibitors of CNKSR1. […] The binding of the compounds to the expressed PH-domain of CNKSR1 (KDobs) can be measured by surface plasmon resonance (SPR) spectroscopy.
Other docking was performed using modeling algorithms with state-of-the-art commercial drug discovery software (Schrodinger suite). […] Additionally, ligand-based approaches provided an alternative to structure based drug discovery. Ligand-based virtual screening methodologies can take into account shape and electrostatics (like ROCS) and the pharmacophoric features (acceptor, donor, hydrophobic, aromatic, etc.) of its functional groups. […] SPR interaction analyses of all other compounds was undertaken using a Biacore T100 with Control and Evaluation software kit.

PH-domain of Tiam1 = test: SPR binding to expressed PH-domain of Tiam1
Procedure: In embodiments, the binding of identified compounds to the crystal structures of other PH-domain signaling proteins, AKT, PDPK1, Btk, and Tiam1 can be predicted. In such embodiments, the Kds exceed about 100 μM. In other embodiments, SPR can measure the binding of identified compounds to the expressed PH-domains of AKT, PDPK1 and Tiam1. […] Thus, the identified compounds appear have, at least, about 50 to about 100 fold selectivity for CNKSR1 compared to the other PH-domains studied.
A commercially available docking package, GOLD (GOLD [3.2], CCDC: Cambridge, UK, 2007) was used to evaluate the docking of compounds 1-7 into the binding pocket, see e.g. Table 5. Other docking was performed using modeling algorithms with state-of-the-art commercial drug discovery software (Schrodinger suite). GLIDE was chosen as the docking algorithm used to select and optimize compounds, providing a GlideScore as a rough estimate of binding affinity that was used to rank and select the best compounds. Additionally, ligand-based approaches provided an alternative to structure based drug discovery. Ligand-based virtual screening methodologies can take into account shape and electrostatics (like ROCS) and the pharmacophoric features (acceptor, donor, hydrophobic, aromatic, etc.) of its functional groups. […]

[1] = tested on: mut-KRAS H2122 NSCLC tumor xenograft; test: Antitumor activity, H2122 xenograft; assay type: in vivo; details: scid mice
Procedure: In embodiments, identified compounds may be nontoxic at about […] for about 20 days with no weight loss and no observable toxic effects for the animal, and may have antitumor activity (FIG. 4 A).

[2] = Pharmacokinetics after oral administration; assay type: in vivo, mice; details: for elimination half life: oral, mice
Procedure: In order to understand better the reasons for the antitumor activity of compound #7 pharmacokinetic studies were conducted. […] Following oral administration in vivo plasma concentrations of the parent compound were low, about 3 μg/ml (7 μM) whereas the de-esterified acid form (compound 8) was present at high peak concentrations of around 50 μg/ml (128 μM). When compound 8 was administered orally to mice at the same dose even higher peak concentrations of 90 μg/ml (230 μM) were achieved.

[3] = Mouse pharmacokinetics (iv); assay type: in vivo
[4] = Stability in biological media: mouse plasma; assay type: in vitro ADME; details: 50 μg/ml, 37° C.
[5] = Stability in biological media: dog plasma; assay type: in vitro ADME; details: Dog plasma (beagle), 50 μg/ml, 37° C.
[6] = Stability in biological media: fetal bovine serum; assay type: in vitro ADME; details: 10% fetal bovine serum, 50 μg/ml, 37° C.
rHuman carboxyesterase 1 = target: T2, rHuman carboxyesterase 1 (Homo sapiens, UniProt P23141); test: Stability with carboxyesterase 1; assay type: in vitro ADME; details: rHuman carboxyesterase 1 24 U/ml, pH 7.4, 37° C.
T2 sequence (P23141 18-567): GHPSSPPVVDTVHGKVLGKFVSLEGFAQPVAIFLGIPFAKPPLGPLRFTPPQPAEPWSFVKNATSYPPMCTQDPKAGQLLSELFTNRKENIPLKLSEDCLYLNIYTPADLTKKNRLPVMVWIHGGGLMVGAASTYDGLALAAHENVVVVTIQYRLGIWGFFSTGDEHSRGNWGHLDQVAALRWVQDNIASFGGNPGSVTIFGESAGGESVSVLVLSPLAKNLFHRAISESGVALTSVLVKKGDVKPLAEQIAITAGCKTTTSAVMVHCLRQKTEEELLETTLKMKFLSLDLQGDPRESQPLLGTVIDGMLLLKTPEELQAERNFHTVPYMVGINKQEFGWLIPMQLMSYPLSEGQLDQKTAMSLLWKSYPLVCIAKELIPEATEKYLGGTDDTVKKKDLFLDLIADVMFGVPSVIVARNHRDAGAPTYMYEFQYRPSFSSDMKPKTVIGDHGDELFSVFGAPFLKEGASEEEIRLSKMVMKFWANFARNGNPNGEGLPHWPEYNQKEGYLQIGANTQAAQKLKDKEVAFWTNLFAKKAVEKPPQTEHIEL

Kd (PH-domain of CNKSR1): 1800 ± 600 nM | SPR binding to PH-domain of Tiam1 (PH-domain of Tiam1): No measurable binding | plasma concentration of the parent compound ([2]; compound #7 orally 200 mg/kg, 200 mg/kg): about 3 μg/ml and ~7 μM | elimination half life [2]: 13 h | elimination half life ([2]; listed as #7): 6 h | metabolism in vivo to the acid metabolite ([2]; orally 200 mg/kg, FIG. 4B): rapidly de-esterified | t1/2β [3]: 3 UN min | Half life [4]: 6.3 min | Half life [5]: 9.3 h | Half life [6]: 13.2 h | Half life (rHuman carboxyesterase 1): 0.317 h
SMILES: CCOC(=O)Cc1nn(Cc2nc(-c3ccc(C)cc3)cs2)c(=O)c2ccccc12 [Compound 7]
tumor growth rate inhibition [1]: about 45% | tumor growth rate ([1]; vehicle about 55): about 30 mm^3/day
